Test results from US20240391862A1, “(1,4,5-TRISUBSTITUTED-1H-PYRAZOL-3-YL)OXY-2-ALKOXY ALKYL ACIDS AND THEIR DERIVATIVES, THEIR SALTS AND THEIR USE AS HERBICIDAL AGENTS” (Bayer AKtiengesellschaft, priority 2021, published 2024).

Key:
ALOMY = experiment: Post-emergence herbicidal effect, greenhouse pot test; assay type: in vivo, Alopecurus myosuroides; details: Alopecurus myosuroides, 504 h, visual rating about 3 weeks after treatment, read-out: Post-emergence effect against ALOMY
Outline: (§1)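 Weeds sown in sandy loam, greenhouse-grown 2–3 weeks, then sprayed at one-leaf stage with WP or EC formulations in water plus 0.5% additive at 600 l/ha. Rates 20 to 320 g/ha. Visual rating after about 3 weeks versus untreated controls (100% = plants dead, 0% = like control).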

VERPE = experiment: as above; assay type: in vivo, Veronica persica; details: Veronica persica, 504 h, read-out: Post-emergence effect against VERPE in %
Outline: as §1

PHBPU [1] = experiment: Pre-emergence herbicidal effect, greenhouse pot test; assay type: in vivo, Ipomoea purpurea; details: 320 g/ha, scored visually after about 3 weeks vs untreated controls
Excerpt: (§2) Seeds of monocotyledonous and dicotyledonous weed plants and crop plants are placed in plastic or organic planting pots and covered with soil. The compounds of the invention, formulated in the form of wettable powders (WP) or as emulsion concentrates (EC), are then applied to the surface of the covering soil as aqueous suspension or emulsion with addition of 0.5% additive at a water application rate equivalent to 600 l/ha. After the treatment, the pots are placed in a greenhouse and kept under good growth conditions for the trial plants. After about 3 weeks, the effect of the preparations is scored visually in comparison with untreated controls as percentages. For example, 100% activity=the plants have died, 0% activity=like control plants.
(§3) Tables 1a to 19c below show the effects/crop compatibilities of selected compounds of the general formula (I) on various harmful plants at an application rate corresponding to 20 to 320 g/ha, which were obtained by the trial procedure specified above.
(§4) • ALOMY: Alopecurus myosuroides SETVI: Setaria viridis • AVEFA: Avena fatua POLCO: Fallopia convolvulus • AMARE: Amaranthus retroflexus ECHCG: Echinochloa crus-galli • LOLRJ: Lolium rigidum STEME: Stellaria media • VERPE: Veronica persica MATIN: Tripleurospermum inodorum • DIGSA: Digitaria sanguinalis ABUTH: Abutylon threophrasti • TRZAS: Triticum aestivum VIOTR: Viola tricolor • BRSNW: Brassica napus ZEAMX: Zea mays • PHBPU: Ipomoea purpurea GLXMA: Glycine max • ORYSA: Oryza sativa HORMU: Hordeum murinum

PHBPU [2] = experiment: Post-emergence herbicidal effect, greenhouse pot test; assay type: in vivo, Ipomoea purpurea; details: Ipomoea purpurea, 504 h, 320 g/ha, read-out: Post-emergence effect against PHBPU in %
Outline: as §1

POLCO [3] = experiment: Pre-emergence herbicidal effect, greenhouse pot test; assay type: in vivo, Fallopia convolvulus; details: Fallopia convolvulus, 504 h, 320 g/ha, scored visually after about 3 weeks vs untreated controls, read-out: Pre-emergence effect at 320 g/ha against POLCO in %
Excerpt: as §2, §3, §4

ECHCG [4] = experiment: Post-emergence herbicidal effect, greenhouse pot test; assay type: in vivo, Echinochloa crus-galli; details: Echinochloa crus-galli, 504 h, read-out: Post-emergence effect against ECHCG in %
Outline: as §1

ECHCG [5] = experiment: Pre-emergence herbicidal effect, greenhouse pot test; assay type: in vivo, Echinochloa crus-galli; details: Echinochloa crus-galli, 504 h, 320 g/ha, scored visually after about 3 weeks vs untreated controls, read-out: Pre-emergence effect at 320 g/ha against ECHCG in %
Excerpt: as §2, §3, §4

TRZAS [6] = experiment: Pre-emergence herbicidal effect and crop plant compatibility, greenhouse pot test; assay type: in vivo, Triticum aestivum; details: scored visually after about 3 weeks vs untreated controls
Excerpt: as §2, §3, §4

AVEFA = experiment: Pre-emergence herbicidal effect, greenhouse pot test; assay type: in vivo, Avena fatua; details: 320 g/ha, scored visually after about 3 weeks vs untreated controls
Excerpt: as §2, §3, §4

ZEAMX [7] = experiment: Pre-emergence herbicidal effect and crop plant compatibility, greenhouse pot test; assay type: in vivo, Zea mays; details: scored visually after about 3 weeks vs untreated controls
Excerpt: as §2, §3, §4

MATIN [8] = experiment: Pre-emergence herbicidal effect, greenhouse pot test; assay type: in vivo, Tripleurospermum inodorum; details: Tripleurospermum inodorum, 504 h, 320 g/ha, scored visually after about 3 weeks vs untreated controls, read-out: Pre-emergence effect at 320 g/ha against MATIN in %
Excerpt: as §2, §3, §4

DIGSA [9] = experiment: as above; assay type: in vivo, Digitaria sanguinalis; details: 320 g/ha, scored visually after about 3 weeks vs untreated controls
Excerpt: as §2, §3, §4

MATIN [10] = experiment: Post-emergence herbicidal effect, greenhouse pot test; assay type: in vivo, Tripleurospermum inodorum; details: Tripleurospermum inodorum, 504 h, 320 g/ha, read-out: Post-emergence effect against MATIN in %
Outline: as §1

SETVI [11] = experiment: as above; assay type: in vivo, Setaria viridis; details: Setaria viridis, 504 h, 320 g/ha, read-out: Post-emergence effect against SETVI in %
Outline: as §1

GLXMA [12] = experiment: Pre-emergence herbicidal effect and crop plant compatibility, greenhouse pot test; assay type: in vivo, Glycine max; details: scored visually after about 3 weeks vs untreated controls
Excerpt: as §2, §3, §4

LOLRI [13] = experiment: Pre-emergence herbicidal effect, greenhouse pot test; assay type: in vivo, Lolium rigidum; details: 320 g/ha, scored visually after about 3 weeks vs untreated controls
Excerpt: as §2, §3, §4

POLCO [14] = experiment: Post-emergence herbicidal effect, greenhouse pot test; assay type: in vivo, Fallopia convolvulus; details: Fallopia convolvulus, 504 h, read-out: Post-emergence effect against POLCO in %
Outline: as §1

DIGSA [15] = experiment: as above; assay type: in vivo, Digitaria sanguinalis; details: Digitaria sanguinalis, 504 h, visual rating about 3 weeks after treatment, read-out: Post-emergence effect against DIGSA
Outline: as §1

LOLRI [16] = experiment: as above; assay type: in vivo, Lolium rigidum; details: Lolium rigidum, 504 h, read-out: Post-emergence effect against LOLRI in %
Outline: as §1

AMARE = experiment: Pre-emergence herbicidal effect, greenhouse pot test; assay type: in vivo, Amaranthus retroflexus; details: scored visually after about 3 weeks vs untreated controls
Excerpt: as §2, §3, §4

SETVI [17] = experiment: as above; assay type: in vivo, Setaria viridis; details: Setaria viridis, 504 h, 320 g/ha, scored visually after about 3 weeks vs untreated controls, read-out: Pre-emergence effect at 320 g/ha against SETVI in %
Excerpt: as §2, §3, §4

ORYSA [18] = experiment: Pre-emergence herbicidal effect and crop plant compatibility, greenhouse pot test; assay type: in vivo, Oryza sativa; details: scored visually after about 3 weeks vs untreated controls
Excerpt: as §2, §3, §4

TRZAS [19] = experiment: Post-emergence herbicidal effect and crop plant compatibility, greenhouse pot test; assay type: in vivo, Triticum aestivum; details: visual rating about 3 weeks after treatment, crop plant
Outline: (§5)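 Greenhouse pot plants in sandy loam receive a one-leaf-stage spray at 20 to 320 g/ha. Activity is assessed visually around 3 weeks afterwards on a 0–100% scale, where 100% means the plants have died.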

ZEAMX [20] = experiment: as above; assay type: in vivo, Zea mays; details: one-leaf stage, rated visually after about 3 weeks vs untreated controls
Outline: as §5

ORYSA [21] = experiment: as above; assay type: in vivo, Oryza sativa; details: 80 g/ha, visual rating about 3 weeks after treatment, crop plant
Outline: as §5

GLXMA [22] = experiment: as above; assay type: in vivo, Glycine max; details: 80 g/ha, visual rating about 3 weeks after treatment, crop plant
Excerpt: as §4
Seeds of monocotyledonous and dicotyledonous weeds and crop plants are placed in sandy loam in plastic or organic planting pots, covered with soil and cultivated in a greenhouse under controlled growth conditions. 2 to 3 weeks after sowing, the trial plants are treated at the one-leaf stage. The compounds of the invention, formulated in the form of wettable powders (WP) or as emulsion concentrates (EC), are then sprayed onto the green parts of the plants as aqueous suspension or emulsion with addition of 0.5% additive at a water application rate of 600 l/ha (converted). After the test plants have been kept in the greenhouse under optimum growth conditions for about 3 weeks, the activity of the preparations is rated visually in comparison to untreated controls. For example, 100% activity=the plants have died, 0% activity=like control plants.
Tables 20a to 38c below show the effects/crop compatibilities of selected compounds of the general formula (I) on various harmful plants at an application rate corresponding to 20 to 320 g/ha, which were obtained by the trial procedure specified above.

SMILES: COC(=O)C(OC)Oc1nn(-c2ncccc2F)c(-c2ccc(F)cc2F)c1Br (stereo not drawn) [Example I-07]
- pest or weed control at 80 g/ha (ALOMY; 80 g/ha): 90%
- pest or weed control at 320 g/ha (ALOMY): 90%
- pest or weed control at 80 g/ha (VERPE; 80 g/ha): 80%
- pest or weed control at 320 g/ha (VERPE): 80%
- Pre-emergence effect at 320 g/ha against PHBPU in % (PHBPU [1]): 90%
- pest or weed control at 320 g/ha (PHBPU [2]): 80%
- pest or weed control at 320 g/ha (POLCO [3]): 80%
- pest or weed control at 80 g/ha (ECHCG [4]; 80 g/ha): 80%
- pest or weed control at 320 g/ha (ECHCG [4]): 80%
- pest or weed control at 320 g/ha (ECHCG [5]): 90%
- Pre-emergence effect at 80 g/ha against TRZAS in % (TRZAS [6]): 20%
- Pre-emergence effect at 320 g/ha against AVEFA in % (AVEFA): 80%
- Pre-emergence effect at 80 g/ha against ZEAMX in % (ZEAMX [7]): 10%
- pest or weed control at 320 g/ha (MATIN [8]): 90%
- Pre-emergence effect at 320 g/ha against DIGSA in % (DIGSA [9]): 90%
- pest or weed control at 320 g/ha (MATIN [10]): 80%
- pest or weed control at 320 g/ha (SETVI [11]): 80%
- Pre-emergence effect at 80 g/ha against GLXMA in % (GLXMA [12]): 10%
- Pre-emergence effect at 320 g/ha against LOLRI in % (LOLRI [13]): 90%
- pest or weed control at 80 g/ha (POLCO [14]; 80 g/ha): 80%
- pest or weed control at 320 g/ha (POLCO [14]; 320 g/ha): 90%
- pest or weed control at 80 g/ha (DIGSA [15]; 80 g/ha): 80%
- pest or weed control at 320 g/ha (DIGSA [15]; 320 g/ha): 90%
- pest or weed control at 80 g/ha (LOLRI [16]; 80 g/ha): 80%
- pest or weed control at 320 g/ha (LOLRI [16]; 320 g/ha): 80%
- Pre-emergence effect at 80 g/ha against AMARE in % (AMARE; 80 g/ha): 80%
- pest or weed control at 320 g/ha (AMARE; Amaranthus retroflexus, 504 h, 320 g/ha, read-out: Pre-emergence effect at 320 g/ha against AMARE in %): 90%
- pest or weed control at 320 g/ha (SETVI [17]): 100%

SMILES: CCOC(=O)C(OCC)Oc1nn(-c2ncccc2F)c(-c2ccc(F)cc2F)c1Br (stereo not drawn) [Example I-08]
- pest or weed control at 320 g/ha (ALOMY): 90%
- pest or weed control at 320 g/ha (VERPE): 80%
- pest or weed control at 320 g/ha (ECHCG [4]): 80%
- Pre-emergence effect at 80 g/ha against TRZAS in % (TRZAS [6]): 0%
- Pre-emergence effect at 320 g/ha against TRZAS in % (TRZAS [6]): 0%
- Pre-emergence effect at 80 g/ha against ORYSA in % (ORYSA [18]; 80 g/ha): 0%
- Pre-emergence effect at 320 g/ha against ORYSA in % (ORYSA [18]; 320 g/ha): 0%
- Pre-emergence effect at 80 g/ha against ZEAMX in % (ZEAMX [7]): 0%
- Pre-emergence effect at 320 g/ha against ZEAMX in % (ZEAMX [7]; 320 g/ha): 10%
- pest or weed control at 320 g/ha (MATIN [10]): 80%
- pest or weed control at 320 g/ha (SETVI [11]): 80%
- Pre-emergence effect at 80 g/ha against GLXMA in % (GLXMA [12]): 0%

SMILES: COC(=O)C(OC)Oc1nn(-c2ccc(Cl)cc2F)c(-c2ccc(F)cc2F)c1Br (stereo not drawn) [Example I-11]
- Post-emergence effect against TRZAS (TRZAS [19]; 80 g/ha): 0%
- Post-emergence effect against TRZAS (TRZAS [19]; 320 g/ha): 0%
- Pre-emergence effect at 80 g/ha against TRZAS in % (TRZAS [6]): 0%
- Pre-emergence effect at 320 g/ha against TRZAS in % (TRZAS [6]): 0%
- Post-emergence effect at 80 g/ha against ZEAMX in % (ZEAMX [20]; 80 g/ha): 0%
- Post-emergence effect at 320 g/ha against ZEAMX in % (ZEAMX [20]; 320 g/ha): 0%
- Pre-emergence effect at 80 g/ha against ZEAMX in % (ZEAMX [7]): 0%
- Post-emergence effect against ORYSA (ORYSA [21]): 0%
- Pre-emergence effect at 80 g/ha against GLXMA in % (GLXMA [12]): 0%
- Pre-emergence effect at 320 g/ha against GLXMA in % (GLXMA [12]; 320 g/ha): 0%
- Post-emergence effect against GLXMA (GLXMA [22]): 20%
